Laboratory results taken from publication PMC7156458, “Synthetic biology based construction of biological activity-related library of fungal decalin-containing diterpenoid pyrones” (Nature Communications, 2020).
pEC50: −log10 of the molar value. Several values for one entry are separate records, joined by “and”; a condition that tells them apart may be missing. Equal values may be shown once. Read-outs that look alike come from different tables or passages of the source.

Experiments:
MCF-7 cells [1] = test: mammosphere formation assay; assay type: cell-based, human; conditions: MCF-7, 5 μM, 7 days; for MFE (%) ave: mean of 3, control 0.87; for MFE (control = 1) ave: relative to control = 1; for MFE (%): single replicates
Experimental: We also evaluated antiproliferative activity against cancer stem cells (CSCs), which are a small sub-population in tumour bulk identified in most cancer cells and clinical samples[52]. CSCs have been a major problem in cancer therapy because they are responsible for recurrence, metastasis and drug resistance to chemotherapeutic agents that affect proliferative cells[53]–[56]. Anti-CSC activity was evaluated by the inhibition of sphere-forming ability, a well-studied method to enrich the CSC-like population, and selective cytotoxicity against one of the most reliable CSC markers, aldehyde dehydrogenase (ALDH)-positive cells. […] Low-toxicity 16 was also added as a negative control. […] We next evaluated the three DDPs that inhibited mammosphere formations against ALDH-positive cells, a functional marker for breast CSCs. MCF-7 cells were treated with 1 μM of 11, 12 or 22, and the ALDH-positive cell population was analysed by using a fluorescence activated cell sorter (Supplementary Fig. 46b). […] Thus, for the first time, we successfully found DDPs with potent antiproliferative effects on the CSC-like population in MCF-7 cells, which may lead to new anti-CSC drugs.
Fig. 5 DDPs show anti-CSC activity in breast cancer cell line MCF-7. a Effect of DDPs on mammosphere formation. After the cells were cultured in the presence of 5 μM DDPs for 7 days, the number of mammospheres was microscopically counted and the percentage of mammosphere-forming cells was determined as mammosphere-forming efficiency (MFE; %). Data represent mean ± s.d. from three independent replicate experiments. P-values were calculated by a two-sided unpaired Student’s t-test, compared with control. b Micrographs show representative images of mammosphere formation from three independent replicate experiments using compound 11, 12, 16, 22. The scale bar, […]. c Effect of DDPs (1 μM, 3 days) on ALDH-positive cells in MCF-7 cells. Data represent mean ± s.d. from three independent replicate experiments. P-values were calculated by a two-sided unpaired Student’s t-test, compared with control. d Dose-dependent effect of compound 12 on ALDH-positive cells in MCF-7 cells. Data represent mean ± s.d. from three independent replicate experiments. P-values were calculated by a two-sided unpaired Student’s t-test. Source data underlying Fig. 5a, c, d are provided in a Source Data file.

MCF-7 cells [2] = test: cell cytotoxic effects against MCF-7 cells (72 h), A490; assay type: cell-based, human; conditions: MCF-7, 72 h; for viability at 0.1 µM / viability at 1 µM / viability at 10 µM: Homo sapiens, MCF7, 72 h, read-out: A490 (control =1) ave
Experimental: !" ' ' '! !" ' ' '! !" ' ' '!!" ' ' '!!" ' ' '!!" ' ' '!!" ' ' '!!" ' ' '! !" ' ' '! !" ' ' '! !" ' ' '! !"#$
( % ) * '! '' '# '+ '$ '( '%
! " # $ %& %% %' %( %) %! %"
!" ' ' '! !" ' ' '!!" ' ' '!!" ' ' '!!" ' ' '!!" ' ' '!!" ' ' '! !" ' ' '! !" ' ' '! !" ' ' '! !" ' ' '! […]
Supplementary Fig. 46. a, Cell cytotoxic effects of DDPs against MCF-7 cells (72 h).
dose dependent cytotoxic effects against MCF-7 cells were tested their inhibitory activity against mammosphere
formation. Compound in blue (16) was also performed mammosphere assay as negative control. Data represent
mean±s.d. from three independent replicate experiments. […]
Source data underlying Supplementary Figure 46a are provided in a Source Data file. […]

[3] = tested on: human immunodeficiency virus-1 (HIV-1); test: anti-HIV MAGI assay; assay type: cell-based; conditions: anti-HIV
Description: (§1) We examined the inhibitory activities of DDPs against various species of bacteria (both gram-negative and gram-positive bacteria), fungi and viruses. […] In contrast, preliminary screening of the DDPs for anti-viral agents with hepatitis B virus (HBV), measles virus (MV), Epstein-Barr virus (EBV), herpes simplex virus (HSV) and human immunodeficiency virus-1 (HIV-1) indicated their selective inhibition of HIV.

MAGI cells = test: cytotoxicity in the anti-HIV assay (CC50); assay type: cell-based
Description: as §1
Policy information about cell lines […]
HeLa-CD4-LTR/ !-galactosidase (MAGI) cells provided by Dr. J. Overbaugh through the NIH AIDS Research and Reference […]
MAGI cells were authenticated by the NIH.
Mycoplasma contamination All the cell lines tested negative for mycoplasma contamination.
Commonly misidentified lines No commonly mis-identified cell lines. […]

[4] = 0.1 µM (DMSO 0.002%), control 1.064
[5] = 1 µM (DMSO 0.02%), control 1.104
[6] = 10 µM (DMSO 0.2%), control 1.049

SMILES | MFE (%) ave (MCF-7 cells [1]) | MFE (control = 1) ave (MCF-7 cells [1]) | MFE (%) (MCF-7 cells [1]) | viability at 0.1 µM (MCF-7 cells [2]; 0.1 µM (DMSO 0.002%)) | viability at 1 µM (MCF-7 cells [2]; 1 µM (DMSO 0.02%)) | viability at 10 µM (MCF-7 cells [2]; 10 µM (DMSO 0.2%)) | A490 ave (MCF-7 cells [2]; [4]) | A490 ave (MCF-7 cells [2]; [5]) | A490 ave (MCF-7 cells [2]; [6]) | other results
COc1cccc2c1C(=O)c1c(O)c3c(c(O)c1C2=O)C[C@@](O)(C(=O)CO)C[C@@H]3O[C@H]1C[C@H](N)[C@H](O)[C@H](C)O1 [Dox, doxorubicin, reference compound] | 0.58% | 0.67 | 0.68% and 0.52% and 0.54% | 82.9% | 47.4% | 21% | 0.882 | 0.523 | 0.220 | A490 (MCF-7 cells [2]; 10 µM (DMSO 0.2%), single replicates): 0.193
Cc1cn([C@H]2C[C@H](N=[N+]=[N-])[C@@H](CO)O2)c(=O)[nH]c1=O [AZT, reference compound] | – | – | – | – | – | – | – | – | – | pEC50 ([3]; MAGI assay, read-out: EC50): 7.53; pEC50 ([3]; average of numeric determinations, read-out: Avg. EC50): 7.53; CC50 (MAGI cells): > 10000 nM; Cytotoxicity (MAGI cells): >10 µM
Cc1oc(=O)cc(O)c1C [Compound 1] | – | – | – | – | – | – | – | – | – | pEC50 ([3]; Human immunodeficiency virus 1, MAGI, average of numeric determinations, read-out: Avg. EC50): 7.12; Cytotoxicity (MAGI cells; single determinations): >10 µM and 9.224 µM and 8.859 µM
O=c1[nH]cc(F)c(=O)[nH]1 [Compound 5-FU, 5-fluorouracil, reference compound] | 1.09% | 1.25 | 1.16% and 1.20% and 0.90% | 75.5% | 67.3% | 55.5% | 0.803 | 0.744 | 0.582 | –
CC(C)=CCCC1(C)OC1CC/C(C)=C/CC/C(C)=C/Cc1c(O)c(C)c(C)oc1=O (centres unmarked) [Compound 3] | – | – | – | – | – | – | – | – | – | pEC50 ([3]; Human immunodeficiency virus 1, MAGI, single determinations, read-out: Efficacy (EC50)): < 5.00
